Results published in patent publication US4690920A, “Derivative of cephalosporanic acid and pharmaceutical composition comprising the same” (Kureha Kagaku Kogyo Kabushiki Kaisha, priority 1982, dated 1987).

How the values were obtained:
[1] = system: Lactobacillus bifidus; assay: Effect on the intestinal bacterial colonies: number of Lactobacillus bifidus in feces; format: in vivo, Lactobacillus bifidus (feces of female ICR mice); details: oral, 500 mg/kg/day for 2 days; feces one day after administration; before administration 8.0
Protocol: (§1) After collecting the feces of a group of mice, each of the compounds represented by the formula (I) was orally administered to each of the group for 2 continued days at a daily dose rate of 500 mg per kg body weight, and the feces were again collected one day after the administration. Each portion of the thus collected, two kinds of the feces was cultured at 25° C. or 37° C. in a variety of culture media for one to five days to see the state of growth of the following bacteria which are present habitually in the intestine of the mouse: Escherichia coli, Pseudomonas aeruginosa, a streptococcus bacterial species, a lactobacillis bacteria, Lactobacillus bifidus and a bacterioides bacteria.
(§2) Each of the compounds, respectively produced in Examples 1 to 6 was orally administered for two continued days at a daily dosage of 500 mg/kg body weight to each of five female ICR mice of a group after 6 weeks of birth.
(§3) Each of the two fecal specimens respectively collected before and after one day of the administration was diluted with 100 times by weight of an anaerobic diluent (a phosphoric buffer solution) and was ground in a mortar, and 0.1 ml of the ground material was smeared on each of the following culture media for the following bacteria and the thus inoculated culture media were incubated under the following conditions. Thereafter, the number of the following bacteria was determined on each culture medium.
BS agar 37° C., for 5 days, […]

[2] = system: A species of Lactobacillus; assay: Effect on the intestinal bacterial colonies: number of a species of Lactobacillus in feces; format: in vivo, Lactobacillus (feces of female ICR mice); details: for Log10 value of the number of bacterial cells/g of feces, a species of Lactobacillus: oral, 500 mg/kg/day for 2 days, feces one day after administration, before administration 9.0
Protocol: as §1, §2, §3
a species of LBS agar 37° C., for 5 days, […]

[3] = system: A species of Bacterioides; assay: Effect on the intestinal bacterial colonies: number of a species of Bacterioides in feces; format: in vivo, Bacteroides (feces of female ICR mice); details: oral, 500 mg/kg/day for 2 days; feces one day after administration; before administration 8.1
Protocol: as §1, §2, §3
a species of NBGT agar 37° C., for 5 days,7 -Bacteroides anaer

[4] = system: Pseudomonas aeruginosa; assay: Effect on the intestinal bacterial colonies: number of Pseudomonas aeruginosa in feces; format: in vivo, Pseudomonas aeruginosa (feces of female ICR mice); details: oral, 500 mg/kg/day for 2 days; feces one day after administration; before administration <3.0
Protocol: as §1, §2, §3
NAC agar 37° C., for 1 day, […]

[5] = system: A species of Streptococcus; assay: Effect on the intestinal bacterial colonies: number of a species of Streptococcus in feces; format: in vivo, Streptococcus (feces of female ICR mice); details: oral, 500 mg/kg/day for 2 days; feces one day after administration; before administration 6.4
Protocol: as §1, §2, §3
a species of TATAC agar 37° C., for 1 day, […]

[6] = system: Escherichia coli; assay: Effect on the intestinal bacterial colonies: number of Escherichia coli in feces; format: in vivo, Escherichia coli (feces of female ICR mice); details: for Log10 value of the number of bacterial cells/g of feces, Escherichia coli: oral, 500 mg/kg/day for 2 days, feces one day after administration, before administration 7.0
Protocol: as §1, §2, §3
DHL agar 37° C., for 1 day, […]

[7] = system: Escherichia coli IFO 12734; assay: Anti-bacterial activity, agar plate dilution method (MIC), Escherichia coli; format: cell-based; details: 18 to 24 hours, 37° C.; for Minimum concentration of inhibiting growth of Escherichia coli (MIC): Mueller-Hinton agar; for MIC: IFO12734, Mueller-Hinton agar, read-out: Minimum concentration of inhibiting growth of Escherichia coli (MIC)
Protocol: (§4) 3-1: The minimum growth-inhibiting concentration (MIC) of each of the compounds represented by the formula (I) was measured according to the standard procedures of Japan Society of Chemotherapy against each of the following bacterial species:
Escherichia coli, IFO 12734 and
(§5) Anti-bacterial activity of each of the compounds produced in Examples 1 to 6 was measured according to the standard procedures of Japan Society of Chemotherapy in agar plate dilution method as follows:
(§6) As a test bacterial species, Escherichia coli IFO 12734 and Staphylococcus aureus IAM 1011, and each strain was inoculated into Mueller-Hinton's culture medium for 18 to 48 hours at 37° C., and while using the thus cultured bacteria, each of the test bacterial liquid containing 10^6 cells in one ml was prepared.
(§7) Separately, after preparing each series of diluted aqueous solutions of each of the compounds produced in Examples 1 to 6, respectively, each of them was mixed in amount of 1/9 time by weight with the Mueller-Hinton's culture medium and each flat agar culture plate was prepared by using the thus formed mixture.

[8] = system: Staphylococcus aureus IAM 1011; assay: Anti-bacterial activity, agar plate dilution method (MIC), Staphylococcus aureus; format: cell-based; details: 18 to 24 hours, 37° C.; for Minimum concentration of inhibiting growth of Staphylococcus aureus (MIC): Mueller-Hinton agar; for MIC: IAM1011, Mueller-Hinton agar, read-out: Minimum concentration of inhibiting growth of Staphylococcus aureus (MIC)
Protocol: as §4
Staphylococcus aureus, IAM 1011
as §5, §6, §7

[9] = system: Staphylococcus aureus IAM 1011; assay: Model test for verifying the activation in living body: growth-inhibition circle with/without rat liver S-9 mix; format: cell-based; details: 20 min at 37° C., then 18 hours at 37° C.; for Sign: diameter of growth-inhibiting circle as percentage of that due to compound of formula (II), with the addition of S-9 mix: with the addition of S-9 mix (rat liver homogenate)
Protocol: On each flat culture plate prepared by adding 10^8 cells/ml of a preliminarily cultured Staphylococcus aureus IAM 1011 into 50 times by weight of Mueller-Hinton's agar culture medium, a penicillin cup of 8 mm in diameter was placed, and into each cup 0.1 ml of each of the compounds represented by the formula (I) or 0.1 ml of a cultured product of each of the compounds represented by the formula (I) together with a rat liver homogenate (containing a metabolism-activating enzyme, referred to as S-9 mix) was introduced. The diameter of each growth-inhibition circle formed around the cup after incubating the flat culture plate with the cup for 18 hours at 37° C. was measured, and the thus obtained value was compared to the value obtained by the same procedures except for using the compound represented by the formula (II), the starting compound instead of each of the compounds represented by the formula (I).
As a metabolism-activating enzyme, a rat liver homogenate (S-9, manufactured by Oriental Yeast Co.) was used in the following composition (referred to as S-9 mix, hereinafter):
After mixing 0.1 ml of a solution of the compound to be tested with 0.9 ml of S-9 mix or 0.9 ml of 0.1M phosphoric acid buffer solution, the mixture was subjected to shaking culture for 20 min at 37° C. to prepare a test reaction solution for use in the following experiment.
Staphylococcus aureus IAM 1011 was inoculated to Mueller-Hinton's culture medium and the inoculum was cultured for 18 hours at 37° C. and after adjusting the number of the bacterial cells to 10^8 /ml of the culture medium, 50 times by weight of the Mueller-Hinton's agar culture medium were added to the cultured medium to prepare flat culture plates.
After placing a penicillin-cup of 8 mm in diameter on each of the thus prepared flat culture plates, 0.1 ml of the above-mentioned test reaction solution was introduced into the penicillin-cup, and after leaving the system for 2 hours at 4° C., the system was incubated for 18 hour at 37° C., and the diameter of the growth-inhibition circle around the cup on the culture plate was determined.
The thus obtained diameter of the growth-inhibiting circle due to each of the compounds produced respectively in Examples 1 to 6 was compared to that due to the compound repesente by the formula (II), substituted cephalosporanic acid by percentage, and the following signs were respectively given to the respective compounds as follows: […]

[10] = compared to that before administration

| SMILES | Log10 value of the number of bacterial cells/g of feces, Lactobacillus bifidus [1] | number of a certain species of Lactobacillus after administration (in words) [2, 10] | Log10 value of the number of bacterial cells/g of feces, a species of Lactobacillus [2] | Log10 value of the number of bacterial cells/g of feces, a species of Bacterioides [3] | Log10 value of the number of bacterial cells/g of feces, Pseudomonas aeruginosa [4] | Log10 value of the number of bacterial cells/g of feces, a species of Streptococcus [5] | number of cells of Escherichia coli after administration (in words) [6, 10] | Log10 value of the number of bacterial cells/g of feces, Escherichia coli [6] | Minimum concentration of inhibiting growth of Escherichia coli (MIC) [7] [microgram/ml] | Minimum concentration of inhibiting growth of Staphylococcus aureus (MIC) [8] [microgram/ml] | Sign: diameter of growth-inhibiting circle as percentage of that due to compound of formula (II), with the addition of S-9 mix [9] | Sign: diameter of growth-inhibiting circle as percentage of that due to compound of formula (II), without adding S-9 mix [9] | MIC [7] [µg/mL] | MIC [8] [µg/mL] |
| --- | --- | --- | --- | --- | --- | --- | --- | --- | --- | --- | --- | --- | --- | --- |
| CO[C@@]1(NC(=O)CSCC#N)C(=O)N2C(C(=O)O)=C(CSc3nnnn3C)CS[C@@H]21 [CEFMETAZOLE, reference compound] | 3.8 Log10 cells/g of feces | showed a reduction | 4.0 Log10 cells/g of feces | 4.6 Log10 cells/g of feces | 7.0 Log10 cells/g of feces | < 3.0 Log10 cells/g of feces | showed an increase | < 3.0 Log10 cells/g of feces |  |  |  |  |  |  |
| COC1(NC(=O)CSCC#N)C(=O)N2C(C(=O)Nc3ccc(C(=O)O)cc3)=C(CSc3nnnn3C)CSC21 (stereo not drawn) [Example 1, N-(4-carboxyphenyl)-{7-beta-cyanomethylthioacetamido-7-alpha-methoxy-3-[(1-methyl-1H-tetrazol5-yl)thio]methyl-3-cepheme-4-carboxylic}amide] | 8.0 Log10 cells/g of feces |  | 8.9 Log10 cells/g of feces | 8.1 Log10 cells/g of feces | < 3.0 Log10 cells/g of feces | 6.0 Log10 cells/g of feces |  | 7.2 Log10 cells/g of feces | ≥ 100 | ≥ 100 | + (1 to 33) | - (0) |  |  |
| COC(=O)c1ccc(NC(=O)C2=C(CSc3nnnn3C)CSC3N2C(=O)C3(NC(=O)CSCC#N)OC)cc1 (stereo not drawn) [Example 2, N-(4-carbomethoxyphenyl)-{7-beta-cyanomethylthioacetamido-7-alpha-methoxy-3-[(1-methyl-1H-tetrazol-5-yl)thio]methyl-3-cepheme-4-carboxylic}amide] | 8.0 Log10 cells/g of feces |  | 9.1 Log10 cells/g of feces | 8.0 Log10 cells/g of feces | < 3.0 Log10 cells/g of feces | 6.2 Log10 cells/g of feces |  | 6.6 Log10 cells/g of feces | ≥ 100 | ≥ 100 | + (1 to 33) | - (0) |  |  |
| COC(=O)Cc1ccc(NC(=O)C2=C(CSc3nnnn3C)CS[C@H]3N2C(=O)[C@]3(NC(=O)CSCC#N)OC)cc1 [Example 3, N-(4-carbomethoxymethylphenyl)-{7-betacyanomethylthioacetamido-7-alpha-methoxy-3-[(1-methyl-1H-tetrazol-5-yl)thio]methyl-3-cepheme-4-carboxylic}amide] | 7.9 Log10 cells/g of feces |  | 9.1 Log10 cells/g of feces | 8.0 Log10 cells/g of feces | < 3.0 Log10 cells/g of feces | 6.0 Log10 cells/g of feces |  | 7.1 Log10 cells/g of feces |  |  | ± (0 to 1) | - (0) | ≥ 100 | ≥ 100 |
| CO[C@@]1(NC(=O)CSCC#N)C(=O)N2C(C(=O)Nc3ccc(O)cc3)=C(CSc3nnnn3C)CS[C@@H]21 [Example 5, N-(4-hydroxyphenyl)-{7-beta-cyanomethylthioacetamido-7-alpha-methoxy-3-[(1-methyl-1H-tetrazol-5-yl)thio]methyl-3-cepheme-4-carboxylic}amide] | 8.2 Log10 cells/g of feces |  | 9.0 Log10 cells/g of feces | 7.9 Log10 cells/g of feces | < 3.0 Log10 cells/g of feces | 6.6 Log10 cells/g of feces |  | 6.7 Log10 cells/g of feces |  |  | + (1 to 33) | - (0) | ≥ 100 | ≥ 100 |
